Columns and labels:
[1] = FRET fluorescent response of E. coli expressing DsRed2-GGBP-acGFP to glucose; assay type: cell-based; conditions: 22 mM glucose; excitation at 475 nm; after accounting for volume displacement
Experimental: The expression of DsRed2-GGBP-acGFP in E. coli was optimized by first inducing with IPTG and then monitoring the fluorescence produced by the DsRed2 and acGFP proteins. Initially, the protein is expressed for 2-6 hours at 37 C and then transferred to a 25 C shaker for up to 6 days. A 1 ml sample of fermentation broth is removed every 24 hrs during the 25 C expression and examined for fluorescence. […] After accounting for volume displacement, there was a 1-4% increase in DsRed2 emission at 22 mM glucose after excitation at 475 nm due to FRET.

[2] = Thermal denaturation by CD spectroscopy at 220 nm; assay type: physicochemical; conditions: 10 mM PBS, pH 7.4, CD 220 nm
Description: FIG. 2 depicts a plot of the CD spectra ellipticity at 220 nm wavelength of a fluorescently labeled periplasmic binding protein versus temperature. The plot for the protein without ligand is the solid line and the dotted line is the same protein in the presence of its ligand (glucose).
(§1) Combining the preceding mutations provided E149C,A213R,L238S, a protein with glucose binding affinity that is within the physiological range. […] As an illustrative example, the stability of this protein's binding activity was determined by storing solutions of the labeled protein at 25° C. and at 37° C. in a dark environment, and testing aliquots periodically for fluorescent response to glucose. The fluorescence increase for E149C,A213R,L238S upon binding glucose retained 92% of the original fluorescence increase after 3 months at 25° C., and 88% after 3 months at 37° C. Relative stability of the protein's tertiary structure was determined using CD (circular dichroism) spectroscopy of the protein in solution. Spectra were collected in 10 mM PBS, pH 7.4. Each spectrum was the average of 3 accumulations. Thermal denaturation was monitored at 220 nm using a temperature slope of 15° C. per hour over a temperature range of 15-75° C. The Tm (temperature where 50% of the protein was denatured) was 47° C. without glucose and 50° C. in the presence of glucose (see FIG. 2).

[3] = Fluorescent response and glucose binding curve of IANBD-labeled GGBP mutants; conditions: IANBD-labeled protein; for Kd: read-out: glucose affinity; for increase in fluorescence on binding glucose: fluorescent response to 100 mM glucose
Experimental: GGBP protein from the above examples, expressed from E. coli strain Sg13009 following standard protocols (Qiagen) may be further purified. For example, after induction, bacteria were lysed and purified by IMAC using Talon cobalt^2+ resin (Clontech). The purified protein solution was filtered through 100 kDa and 10 kDa cutoff filters (Millipore). […] The yield from the purification was 10 mg/l and the activity of the protein is stable for at least six months. The selected mutants were expressed, purified, and IANBD-labeled to determine their ability to produce a fluorescent response to 100 mM glucose. Mutant E149C,A213R and E149C,N256R produced a 6- and 2-fold increase in fluorescence on binding glucose, respectively. […] Mutant E149C,L238S was identified through an analogous procedure.
as §1

[4] = Stability of binding activity of labeled protein on storage, fluorescent response to glucose; assay type: physicochemical
Experimental: as §1

[5] = Fluorescence assay of NBD-labeled MBP mutants, maltose; assay type: binding; conditions: ligand Maltose; for QF: ratio of fluorescence intensity with / without ligand; for Kd: read-out: Affinity
Experimental: (§2) For the mutants selected by FACS, a fluorescence assay was used to determine their maltose affinity. The mutants were labeled by fluorophore coupling of N,N′-dimethyl-N-(iodoacetyl)-N′-(7-nitrobenz-2-oxa-1,3-diazol-4-yl)ethylenediamine (IANBD amide, Molecular Probes) to a cysteine site created by mutagenesis at position 95 (Gilardi et al. (1997) Protein Eng. 10(5):479-86). Briefly, purified protein (1-2 mg/ml) was treated with dithiothreitol for 30 min and then a 10-fold molar excess of freshly prepared solution of IANBD was added. The protein and dye were gently mixed at RT for 4 hrs before the unreacted dye was removed by Nap-5 (Amersham) size-exclusion column chromatography. The efficiency of the coupling was determined by absorbance.
(§3) QF is defined as the ratio of fluorescence intensity in the presence of ligand, divided by the ratio of fluorescence intensity in the absence of ligand.

[6] = Fluorescence assay of NBD-labeled MBP mutants, maltoside; assay type: binding; conditions: ligand maltoside; ratio of fluorescence intensity with / without ligand
Experimental: as §2, §3

[7] = Fluorescence assay of NBD-labeled MBP mutants, maltotetraitol; assay type: binding; conditions: ligand maltotetraitol; for QF: ratio of fluorescence intensity with / without ligand; for Kd: read-out: Affinity
Experimental: as §2, §3

[8] = Fluorescence assay of NBD-labeled MBP mutants, maltotetraose; assay type: binding; conditions: ligand maltotetraose; for QF: ratio of fluorescence intensity with / without ligand; for Kd: read-out: Affinity
Experimental: as §2, §3

Substance	Kd ([3]; binding curve)	increase in fluorescence on binding glucose [3]	Kd [5]	Kd [7]	Kd [8]	also measured
DsRed2-GGBP-acGFP						increase in DsRed2 emission due to FRET [1]: 1-4%
E149C,A213R,L238S: GGBP mutant combining the preceding mutations	12000 µM	> 6 fold				Tm (temperature where 50% of the protein was denatured) ([2]; in the presence of glucose): 50 °C; Tm (temperature where 50% of the protein was denatured) ([2]; without glucose): 47 °C; fluorescence increase upon binding glucose retained, of the original fluorescence increase ([4]; labeled protein solution stored 3 months at 25° C. in the dark): 92%; fluorescence increase upon binding glucose retained, of the original fluorescence increase ([4]; labeled protein solution stored 3 months at 37° C. in the dark): 88%
E149C,A213R: GGBP mutant binding protein identified by the periplasmic screening assay	1000 µM	6 fold				
E149C,L238S: GGBP mutant binding protein identified through an analogous procedure	80 µM	6 fold				
E149C,N256R: GGBP mutant selected by screening, eliminated from further testing		2 fold				glucose affinity ([3]; binding curve): did not reach saturation at 100 mM glucose
MBP(D95C)-NBD [CONTROL, reference compound]			1 µM	4.5 µM	0.2 µM	QF [5]: 5.3; QF [6]: 5.5; QF [7]: 1.2; QF [8]: 5.2

The next lines start with results.

Kd ([3]; binding curve)	increase in fluorescence on binding glucose [3]	Kd [5]	Kd [7]	Kd [8]	Substance	also measured
		15 µM	3.7 µM	3.6 µM	MBP(D14L,K15R,D95C)-NBD [SC-1]	QF [5]: 3.4; QF [6]: 5.5; QF [7]: 2.8; QF [8]: 2.1
		220 µM	11 µM	40 µM	MBP(D14V, K15V, D95C)-NBD [SC-2]	

Reference: patent US20060040327A1, “Methods of screening proteins” (priority 2004, published 2006)
